According to patent US20140045758A1, “Methods for Treating and Preventing Cardiac Dysfunction in Septic Shock” (THE TRUSTEES OF COLUMBIA UNIVERSITY IN THE CITY OF NEW YORK, priority 2011, published 2014):
Values joined by “and” are separate entries in the source; they are usually repeats but may differ in a detail not shown here. Identical values can stand only once. “Also recorded” adds a separate entry of the source.

Assays:
[1] = test system: patients; settings: human, in vivo, 3 mg/kg/day; cited from earlier work
[2] = test system: C57BL/6 mice; assay: Assessment of survival after lethal dose of LPS; assay type: in vivo
Excerpt: Control animals received saline and DMSO instead of LPS and rosiglitazone, respectively.

[3] = test system: hearts of αMHC-PPARγ mice; assay: Cardiac ATP levels in αMHC-PPARγ mice; assay type: in vivo; settings: LPS-treated αMHC-PPARγ mice
Description: (§1) LPS (5 mg/kg) (Sigma) was administered intraperitoneally (i.p.) in mice. Control mice were treated with equal volume of saline. Cardiac function was assessed by 2D echocardiography 5-6 hours post-LPS administration and mice were sacrificed 2-3 hours later (7-9 hours post-LPS injection).
Cardiac pieces of 10 mg were used to determine ATP levels. Heart pieces were dissolved in ice-cold 0.1% trichloro-acetic acid and centrifuged. Supernatant was resuspended in 50 mM Tris-acetate containing 2 mM EDTA, pH 7.8 and a portion was used to measure ATP. The measurement was performed with the ATP determination kit (Invitrogen) according to the instructions of the manufacturer.

[4] = test system: cardiac tissue from C57BL/6 mice; assay: Electron microscopy of cardiac mitochondria; assay type: in vivo; settings: LPS vs saline
Excerpt: Left ventricles from 3-month-old mice were fixed with 2.5% glutaraldehyde in 0.1 M Sorensen's buffer (0.2 M monobasic phosphate/0.2 M dibasic phosphate, 1:4 vol/vol; pH 7.2), postfixed in osmium tetroxide, and embedded in EPON 812 (Electron Microscopy Sciences). Ultrathin sections were stained with uranyl acetate and lead citrate and examined under a JEM-1200ExII electron microscope (JEOL).

[5] = test system: cardiac muscle of C57BL/6 mice; assay: FA oxidation ([3H]palmitate oxidation) in heart pieces; assay type: in vivo; settings: LPS 5 mg/kg, 6-8 h
Description: as §1

[6] = test system: C57BL6 mice; assay: Plasma IL-6 protein levels after LPS; assay type: in vivo; settings: LPS 5 mg/kg, 6-8 h
Description: An animal model of cardiac septic shock was reproduced by treating 10 week old C57BL6 mice with LPS (5 mg/kg of body) for 6-8 h.

[7] = test system: hearts of αMHC-PPARγ mice; assay: Western blot of pAMPK and pJNK in hearts of αMHC-PPARγ mice; assay type: in vivo
Description: as §1
(§2) Isolated heart tissues or cells were homogenized in PBS containing protease inhibitors and phosphatase inhibitors (Roche, Indianapolis, Ind.). Membrane and cytosolic fractions were separated by ultracentrifugation.20 μg from each fraction was applied to SDS-PAGE and transferred onto nitrocellulose membranes. Antibodies were obtained from Santa Cruz (JNK) and Cell Signaling (phospho-JNK, phospho-AMPK^Thr 172 and total AMPK).

[8] = test system: αMHC-PPARγ mice; assay: LPS in αMHC-PPARγ mice: 2D echocardiography (fractional shortening); assay type: in vivo; settings: LPS-treated αMHC-PPARγ mice
Description: (§3) All procedures involving animals were approved by the Institutional Animal Care and Use Committee at Columbia University. Mice were maintained under appropriate barrier conditions in a 12 hr light-dark cycle and received food and water ad libitum. The animals that were used for this study were C57BL/6 mice and mice expressing specifically in cardiomyocytes peroxisome proliferator activating receptor-γ (αMHC-PPARγ) that are also on the C57BL/6 background. All studies were performed on the different genotypes with littermates as controls. Hearts from these mice were harvested, flash frozen and stored at −80° C. until further use. All analyses involving animals were performed with at least 5 mice per experimental group.
as §1
(§4) Two-dimensional echocardiography was performed on conscious 10 to 12 week-old male and female (n=5-8 per group) mice (Sonos5500 system; Philips Medical Systems).^129Echocardiographic images were recorded in a digital format. Images were then analyzed off-line by a single observer blinded to the murine genotype.^130

[9] = test system: hearts of C57BL/6 mice; assay: Western blot of pJNK, p-cJun and pAMPK in hearts; assay type: in vivo; settings: LPS 5 mg/kg; controls (label LPS) or animals given rosiglitazone 35 mg/kg (label rosiglitazone)
Description: as §1, §2

[10] = test system: hearts of C57BL/6 mice; assay: Cardiac mRNA levels by quantitative real-time PCR after LPS; assay type: in vivo; settings: LPS 5 mg/kg, 6-8 h
[11] = test system: C57BL/6 mice; assay: LPS-mediated sepsis: cardiac function by 2D echocardiography (fractional shortening); assay type: in vivo
Description: as §1, §4

[12] = test system: cardiac RNA from LPS-treated mice; assay: MiR array analysis of cardiac RNA; assay type: in vivo
Excerpt: The next experiment assessed whether the cardiac miR (microRNA) profiles of LPS-treated mice resemble the respective profiles in heart failure. (FIG. 5(A)-(C)).

[13] = test system: cardiac muscle of αMHC-PPARγ mice; assay: [3H]palmitic acid oxidation in cardiac muscle of αMHC-PPARγ mice; assay type: in vivo; settings: LPS-treated vs saline-treated αMHC-PPARγ mice
Description: as §1
FA oxidation was measured in pieces of hearts isolated from 10-12 week old mice. The heart pieces were incubated at 37° C. for 2 h in modified Krebs-Ringerbuffer (MKR: 115 mM NaCl, 2.6 mM KCl, 1.2 mM KH2PO4, 10 mM NaHCO3,10 mM HEPES, pH 7.4) that contained 2% BSA, […] palmitate and 10 μCi/ml 9,10(n)-[^3H]-palmitate and was gassed with 95% O2 and 5% CO2. Water was then extracted with chloroform:methanol (2:1) extraction. Palmitate oxidation was determined by measuring the amount of ^3H2O in the aqueous phase.

[14] = test system: AC16 cells; assay: PPARα gene expression in LPS-treated human cardiomyocyte cell line; assay type: cell-based; settings: LPS treatment alone
Excerpt: A human ventricular cardiomyocyte-derived cell line, designated AC-16, was kindly provided by M. M. Davidson.^126 Cells were maintained in Dulbecco's Modified Eagle Medium: Nutrient Mixture F-12 (Ham) (DMEM:F12) (Invitrogen) supplemented with fetal bovine serum (10%) and a mixture of penicillin and streptomycin (1%). Prior to infection with recombinant adenoviruses the medium was changed to 2% heat inactivated horse serum and the cells were infected in at least duplicates with control adenovirus that expresses the Green Fluorescent Protein (Ad-GFP) or the adenovirus expressing the constitutively active form of JNK2 (Ad-JNK2α2) at a multiplicity of infection (MOI) of 10. […] To assess gene expression 48 hours post incubation, cell lysates were collected and analyzed for mRNA and protein expression.
Total RNA was purified from cells or hearts using the TRIzol reagent according to the instructions of themanufacturer (Invitrogen). cDNA was synthesized using the SuperScript III First-Strand Synthesis SuperMix (Invitrogen). cDNA was analyzed with quantitative real-time PCR that was performed with SYBR Green PCRCore Reagents (Stratagene). Incorporation of the SYBRgreen dye into the PCR products was monitored in real time withan Mx3000 sequence detection system (Stratagene). […]

[15] = test system: hearts of C57BL/6 mice; assay: Cardiac mRNA levels by quantitative real-time PCR after LPS; assay type: in vivo
Description: as §1
(§5) Total RNA was purified from cells or hearts using the TRIzol reagent according to the instructions of themanufacturer (Invitrogen). cDNA was synthesized using the SuperScript III First-Strand Synthesis SuperMix (Invitrogen). cDNA was analyzed with quantitative real-time PCR that was performed with SYBR Green PCRCore Reagents (Stratagene). Incorporation of the SYBRgreen dye into the PCR products was monitored in real time withan Mx3000 sequence detection system (Stratagene). Samples were normalized against β-actin.

[16] = test system: hearts of C57BL/6 mice; assay: Cardiac ATP measurement; assay type: in vivo; settings: LPS 5 mg/kg, 6-8 h
Description: as §1

[17] = test system: hearts of αMHC-PPARγ mice; assay: Cardiac mRNA levels in LPS-treated αMHC-PPARγ mice; assay type: in vivo
Description: as §3, §1, §5

[18] = in vivo; cited from earlier work
[19] = LPS 15 mg/kg, + DMSO (15 mice, F) or + rosiglitazone 33 mg/kg/day (17 mice, M)

## Oblimersen
[1]
  adverse effects in patients: no severe adverse effects

## lipopolysaccharide [LPS]
[2]; [19]
  Survivors 24 h: 14
  Survivors 36 h: 14
  Survivors 48 h: 10
  Survivors 60 h: 5
  Survivors 72 h: 2
[2]; LPS alone 15 mg/kg i.p.
  start of dying post-injection: 36 h
[3]
  cardiac ATP content: significantly increased
  cardiac ATP levels, increase: 2.2 fold
[4]
  morphology and intracellular arrangement of mitochondria: did not affect
[5]
  FAO, reduced by: 61%
[6]
  plasma IL-6 protein levels: increased
[7]; LPS 5 mg/kg, αMHC-PPARγ mice
  JNK activation: activated JNK
[7]; LPS-treated αMHC-PPARγ mice
  phosphorylated AMPK levels: reduced
[8]
  fractional shortening / cardiac function: remained normal; also recorded: preserved
[9]
  phospho-AMPK in heart after LPS: not stimulated; also recorded: reduced phospho-AMPK
  phosphorylation/activation of JNK (and c-Jun) in heart after LPS: induced phosphorylation of JNK; also recorded: activated
[10]
  cardiac gene expression of inflammation-associated genes (IL-1α, IL-6 and TNFα): increased
  mRNA levels for cardiac PPARα, CD36, LpL, FATP, Cpt1β, PGC-1α and PGC-1β: reduced
[11]; LPS 5 mg/kg alone vs saline, 2D-echocardiography
  reduction in fractional shortening: 50%
[11]; LPS 5 mg/kg of body, 6-8 h, 10 week old mice
  fractional shortening, effect of LPS: reduced fractional shortening
[12]
  miRs associated with heart failure (miR-1, -133, -208, -195, -24, -125b, -199a, 214) affected: none
[13]
  levels of FAO, increase: 2.6 fold
[14]
  PPARα expression in human cardiomyocyte cell line: reduces PPARα expression
[15]; LPS 5 mg/kg alone
  PDK4 mRNA increase: 16 fold
  cardiac AOX mRNA, increased by: 42%
  cardiac PPARα mRNA levels, reduced by: 78%
  cardiac perilipin 2 mRNA, increased by: 3.3
[15]; LPS 5 mg/kg alone, qRT-PCR
  cardiac IL-1α mRNA increase: 90 fold
  cardiac IL-6 mRNA increase: 1250 fold
  cardiac TNFα mRNA increase: 26 fold
[15]; LPS alone, normal C57BL/6 mice
  cardiac PPARγ (mRNA) levels, increased by: ~60% and 57%
[15]; LPS, hearts of C57BL/6 mice
  gene expression levels of αMHC and βMHC: reduces both αMHC and βMHC
[15]; LPS-treated mice
  switch from α-MHC isoform to β-MHC (cardiac mRNA): did not indicate such change
[15]; any of the treatment groups (rosiglitazone 35 mg/kg, LPS 5 mg/kg, both)
  cardiac PPARδ mRNA: not modulated
[16]
  cardiac ATP, reduced by: 44%
[17]; LPS
  UCP2 mRNA increase: 23.7 fold
  UCP3 mRNA increase: 17.4 fold
[17]; LPS 5 mg/kg
  PDK4 mRNA increase: 5.4 fold
  cardiac CD36 gene expression, reduced by: 93%
  cardiac IL-1α mRNA increase: 23.1 fold and 23 fold
  cardiac IL-6 mRNA increase: 288 fold and 285 fold
  cardiac PGC-1β gene expression, reduced by: 76%
  cardiac TNFα mRNA increase: 12.5 fold
  estrogen-related receptor (ERR)α mRNA: not modulated
  perilipin 2 mRNA: not modulated
  perilipin 5 mRNA, reduced by: 50%
[17]; LPS 5 mg/kg vs saline
  AOX mRNA increase: 27.1 fold
  Cpt1β mRNA increase: 14.3 fold
  PGC-1α mRNA increase: 30.1 fold
  PPARγ mRNA increase: 31.6 fold
  PPARδ mRNA increase: 31.6 fold
  cardiac PPARα mRNA reduction: 77% and 78%

## CCc1ccc(CCOc2ccc(CC3SC(=O)NC3=O)cc2)nc1 (stereo not drawn) [Pioglitazone, pioglitazone]
[18]
  deleterious effects on blood lipids: fewer deleterious effects on blood lipids
